Reference: US6605424B1, “Method of detecting inhibitors of agonist-specific desensitization” (Duke University, priority 1989, dated 2003)
Read-outs that look alike come from different tables or passages of the source. No end group written: not given here.

Columns and labels:
[1] = test system: β2ARs in permeabilized A431 cells; assay: Phosphorylation of β2ARs in permeabilized A431 cells; format: cell-based, human; settings: 1 μM isoproterenol, absence of heparin
Procedure: FIG. 8. Phosphorylation of β2ARs in permeabilized A431 cells. […] FIG. 8A: Autoradiogram obtained after a 10-day exposure at −70° C. FIG. 8B: Transverse densitometric scan of the autoradiogram.
β2ARs in permeabilized A431 cells were phosphorylated as follows. Permeabilized cells (4×10^8) in 10 ml of KG-A buffer containing 1 mCi (1 Ci=37 GBq) of [γ-^32P]ATP were incubated with or without 1 μM (−)-isoproterenol (and other compounds as indicated) for 10 min at 37° C. All buffers used in these experiments contained 5 μg of soybean tryspin inhibitor, 5 μg of leupeptin, and 10 μg of benzamidine per ml and 0.1 mM phenylmethylsulfonyl fluoride. […] After three identical washing steps, crude membranes were prepared as above.
Aliquots of the samples (≈60 fmol of β2ARs) were desalted over Sephadex G-50 and incubated for 2 hr at 20° C. with 200 pM of the ligand with or without 10 μM alprenolol. Free ligand was removed by desalting as above, and the samples were irradiated with UV light for 3 min. The samples were loaded on the same gel as the samples described above.

[2] = test system: adenylyl cyclase in membranes of A431 cells; assay: cells; settings: Homo sapiens
Procedure: FIG. 5. […] Cells were incubated for 10 min with (desensitized) (●) or without (control) (◯) 1 μM (−)-isoproterenol as detailed. Adenylyl cyclase activities of membranes prepared from the cells were measured in the presence of various concentrations of (−)-isoproterenol and were expressed as percent of the activity in the presence of 10 mM NaF. […] Data are means±SEM of three independent experiments.
Desensitization of β2ARs in A431 cells was effected as follows. Permeabilized cells in KG-A buffer (or, for controls, intact cells in PBS) were incubated with or without 1 μM (−)-isoproterenol for 10 min or the indicated times (4×10^7 cells per ml). The incubation was terminated by addition of 10 vol of ice-cold KG buffer (or PBS, respectively), followed by centrifugation at 1000×g for 5 min. After three identical washes, cells were disrupted with a Polytron homogenizer in 5 mM Tris-HCl, pH 7.4/2 mM EDTA. Crude membranes were prepared by spinning the supernatant after low-speed centrifugation (1000×g for 5 min) at 40,000×g for 20 min.
Adenylyl cyclase activity in the membranes was determined as described by Salomon et al (Anal. Biochem. (1974) 58:541-548). The free Mg^2+ concentration in the assay was 4 mM.
Concentration-response curves were analyzed by nonlinear curve-fitting to the Hill equation as described (Lohse et al (1986) Mol. Pharmacol. 30:403-409). Adenylyl cyclase activity was expressed as the percentage of the activity in the presence of 10 mM NaF. Since NaF stimulates adenylyl cyclase via the stimulatory guanine nucleotide binding protein, Gs, this normalizes for effects that occur at the level of Gs or the cyclase (i.e., which effects represent heterologous desensitization). Desensitization was assessed by measuring the loss of maximal stimulation by isoproterenol [determined with 10 μM (−)-isoproterenol] and was calculated as [1−stimulation (desensitized)/stimulation (control)]×100. For example, a decrease from 60% to 40% of NaF-stimulated activity corresponds to a desensitization of [1−(40/60)]×100=33%.

[3] = test system: β2ARs in intact A431 cells; assay: Desensitization of β2ARs in intact A431 cells; format: cell-based, human; settings: data not shown
[4] = molecular target: T1, βAR kinase (Bos taurus, UniProt P21146); assay: Phosphorylation of purified reconstituted β2ARs by purified βAR kinase (Example II); format: biochemical, bovine; settings: 100 μM
T1 construct: βAR kinase was purified from bovine cerebral cortex; from tissue; host or cells: bovine cerebral cortex
T1 sequence (P21146 1-689): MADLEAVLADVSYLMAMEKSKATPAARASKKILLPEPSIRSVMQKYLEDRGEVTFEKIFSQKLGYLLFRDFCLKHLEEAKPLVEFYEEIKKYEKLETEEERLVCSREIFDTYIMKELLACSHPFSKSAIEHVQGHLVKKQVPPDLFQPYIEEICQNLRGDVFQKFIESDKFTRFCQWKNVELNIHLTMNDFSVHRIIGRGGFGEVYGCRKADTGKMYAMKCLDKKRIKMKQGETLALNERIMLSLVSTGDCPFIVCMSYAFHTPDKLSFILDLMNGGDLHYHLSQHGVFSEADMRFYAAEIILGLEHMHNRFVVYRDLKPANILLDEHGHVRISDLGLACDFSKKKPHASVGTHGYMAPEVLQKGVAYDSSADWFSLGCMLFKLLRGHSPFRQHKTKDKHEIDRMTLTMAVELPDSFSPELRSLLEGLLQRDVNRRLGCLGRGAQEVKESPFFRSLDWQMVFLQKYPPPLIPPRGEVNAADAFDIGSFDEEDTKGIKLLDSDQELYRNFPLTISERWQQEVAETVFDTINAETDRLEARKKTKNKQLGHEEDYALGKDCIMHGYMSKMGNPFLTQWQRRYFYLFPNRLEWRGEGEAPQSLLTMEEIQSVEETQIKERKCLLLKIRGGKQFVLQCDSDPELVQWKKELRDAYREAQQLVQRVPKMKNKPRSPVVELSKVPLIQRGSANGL
Procedure: FIG. 7. […] (Inset) Relevant section of a representative autoradiogram. Data are means±SEM of three independent experiments. […] Desensitization was measured as the percent loss of stimulation by 10 μM (−)-isoproterenol of adenylyl cyclase activity in membranes. […] Data are means±SEM of four independent experiments.
Purified β2ARs were inserted into phosphatidylcholine vesicles by chromatography on Extracti-gel, followed by polyethylene glycol treatment and centrifugation at 280,000×g for 90 min (Cerione et al (1984) Biochemistry 23:4519-4525). Phosphorylation of the reconstituted receptors by purified βAR kinase was done in the presence of 50 μM (−)-isoproterenol as described (Benovic et al (1987) J. Biol. Chem. 262:9026-9032). Subsequently, the samples were subjected to sodium dodecyl sulfate polyacrylamide gel electrophoresis on 10% gels (Laemmli (1970) Nature 227:680-685). The phosphorylated β2ARs were visualized by autoradiography, and the corresponding bands were cut out and their content of ^32P quantified.

[5] = test system: β2ARs in permeabilized A431 cells; assay: Desensitization of β2ARs in permeabilized A431 cells; format: cell-based, human
Procedure: Permeabilization of cells was accomplished as follows. Human epidermoid carcinoma A431 cells were grown to about 95% confluence in Dulbecco's modified Eagle's medium supplemented with 10% fetal calf serum. Cells were harvested with collagenase, washed three times with calcium-free phosphate-buffered saline (PBS), then washed twice in 150 mM potassium glutamate/10 mM Hepes/5 mM EGTA/7 mM MgCl2, pH 7.1 (KG buffer), and finally resuspended in KG buffer supplemented with 5 mM glucose and 2 mM ATP (KG-A buffer) at a density of 4×10^7 cells per ml.
At 4×10^7 cells per ml, about 0.015% digitonin was necessary to achieve permeabilization of >95% cells as assessed by staining with trypan blue. In all experiments, digitonin was added stepwise until >95% of the cells were trypan blue positive.

[6] = molecular target: T1, βAR kinase; assay: Inhibition of β2AR phosphorylation by βAR kinase by synthetic peptides (Example III); format: biochemical, bovine; settings: β2AR as substrate; read-out: IC50 (μM), first intracellular loop peptides as inhibitors of βAR kinase
Procedure: FIG. 13. Inhibition of β2AR phosphorylation by synthetic peptides. Reconstituted β2AR (˜0.4 pmol) was incubated for 30 min at 30° with purified βAR kinase (˜30 ng) in the presence of 50 mM Tris-HCl, pH 7.5, 2 mM EDTA, 10 mM NaCl, 5 mM MgCl2, 5 mM sodium phosphate, 50 μM (−)-isoproterenol and 0.10 mM [γ^32P]ATP (2.0 cpm/fmol). Synthetic β2AR peptides were varied from 0 to 1 mM and included CI (Δ), CII (▴), CIII-2 (◯) and CT-1 (●). Reactions were stopped by the addition of […]. ^32P-labeled receptor was determined by cutting and counting the dried gel following autoradiography.
The β2-adrenergic receptor from hamster lung was purified to apparent homogeneity by sequential affinity and high performance liquid chromatography as described (Benovic et al (1984) Biochemistry 23:4510-4518). The purified receptor was reinserted into phosphatidylcholine vesicles as previously described (Cerione et al (1983) Nature 306:562-566). The protein-lipid pellets were resuspended in 20 mM Tris-HCl, pH 7.2, 2 mM EDTA and used as a substrate for the βAR kinase.
βAR kinase was purified from bovine cerebral cortex by modification of a previously described procedure (Benovic et al (1987) J. Biol. Chem. 262:9026-9032). Briefly, 250 g of bovine cortex was homogenized and the resulting high speed supernatant fraction was precipitated with 13-26% ammonium sulfate. This material was initially chromatographed on an Ultrogel AcA34 column equilibrated with 5 mM Tris-HCl, pH 7.5, 2 mM EDTA, 5 μg/ml leupeptin, 5 μg/ml pepstatin, 15 μg/ml benzamidine, 0.2 mM phenylmethyl sulfonyl fluoride (buffer A). The peak activity was diluted 1:1 with buffer A containing 0.02% triton X-100 and applied to a DEAE Sephacel column. Elution was accomplished with a 0-80 mM NaCl gradient in buffer A containing triton X-100. The peak activity was then applied directly to a CM Fractogel column and eluted with a 0-100 mM NaCl gradient in buffer A containing triton X-100. The purified kinase was stored at 4° C.
The inhibition of substrate phosphorylation by βAR kinase in the presence of synthetic peptides was assayed as follows. Reconstituted βAR (0.2-1 pmol/inclubation) was incubated with βAR kinase (10-30 ng) in a buffer containing 50 mM Tris-HCl, pH 7.5, 2 mM EDTA, 10 mM NaCl, 5 mM MgCl2, 5 mM sodium phosphate, 50 μM (−)-isoproterenol, 0.10 mM [γ-^32P]ATP (1-3 cpm/fmol) at 30° C. for 30 min. Synthetic β2AR peptides were varied in concentration from 0 to 2 mM. Reactions were quenched by the addition of SDS sample buffer followed by gel electrophoresis. In some experiments urea treated rod outer segments (Wilden et al (1982) Biochemistry 21:3014-3022; Shichi et al (1978) J. Biol. Chem. 253:7040-7046) were used as the substrate for βAR kinase. To further define the specificity of the peptide inhibition, phosvitin, casein (see Example I) and the synthetic peptides CT-2 and CT-3 were used as substrates for βAR kinase.
SDS polyacrylamide gel electrophoresis was performed by the method of Laemmli (Nature (1970) 227:[…]) using 10 or 15% homogeneous slab gels. SDS sample buffer contained 8% SDS, 10% glycerol, 5% β-mercaptoethanol, 25 mM Tris-HCl, pH 6.5 and 0.003% bromphenol blue. SDS urea polyacrylamide gel electrophoresis was carried out using 6.5 M urea, 0.1% SDS, 100 mM H3PO4, pH 6.8 with Tris-HCl and 9% acrylamide (Swank et al (1971) Anal. Biochem. 39:462). SDS urea sample buffer contained 1% SDS, 8M urea, 10 mM H3PO4, pH 6.8 with Tris-HCl, 1% β-mercaptoethanol and 0.003% bromphenol blue.

Molecule	increase in the phosphorylation of the β2ARs [1] [fold]	Emax ([2]; A-431, 10 min, read-out: desensitization (loss of maximal stimulation), 1 μM isoproterenol 10 min 37° C., both intact and permeabilized cells) [%]	EC50 ([2]; A-431, read-out: EC50, adenylyl cyclase stimulation, control intact cells) [nM]	EC50 ([2]; A-431, read-out: EC50, adenylyl cyclase stimulation, control permeabilized cells) [nM]	EC50 ([2]; A-431, read-out: EC50, adenylyl cyclase stimulation, desensitized intact cells) [nM]	EC50 ([2]; A-431, read-out: EC50, adenylyl cyclase stimulation, desensitized permeabilized cells) [nM]	Emax ([2]; A-431, read-out: Emax, maximal stimulation over basal in percent of activity with 10 mM NaF, control intact cells) [%]	Emax ([2]; A-431, read-out: Emax, maximal stimulation over basal in percent of activity with 10 mM NaF, control permeabilized cells) [%]	Emax ([2]; A-431, read-out: Emax, maximal stimulation over basal in percent of activity with 10 mM NaF, desensitized intact cells) [%]	Emax ([2]; A-431, read-out: Emax, maximal stimulation over basal in percent of activity with 10 mM NaF, desensitized permeabilized cells) [%]	effect on desensitization in intact cells [3]	inhibition at 100 µM [4] [%]	Inhibition of Desensitization, % ([5]; 100 μM) [%]	effect on time course of desensitization ([5]; 100 μM peptide, 1 μM (−)-isoproterenol)	IC50 [6] [µM]
CC(C)NC[C@H](O)c1ccc(O)c(O)c1 [isoproterenol, (−)-isoproterenol]	5	~30	200	130	300	190	56	62	40	43	–	–	–	–	–
AIAKFERLQTVTNYF [β2AR-(57-71)]	–	–	–	–	–	–	–	–	–	–	Neither compound affected desensitization	80 ± 13	52 ± 12	markedly slowed the rate of desensitization	62
